Values of other authors in USRE39480E1, “Chromium/biotin treatment of type II diabetes” (Nutrition 21, Inc., priority 1997, dated 2007).

Columns and labels:
Type II diabetes = details: doses which provide between 50 and 500 μg of chromium
[1] = system: individuals with Type II diabetes; details: 1,000 μg chromium per day as chromic tripicolinate
[2] = system: poorly-controlled type II diabetics; details: 3 mg biotin three times per day
[3] = oral biotin intakes of up to 200 mg daily
Type I diabetics = details: daily oral dose of 16 mg; insulin injections temporarily discontinued
diabetic KK mice = details: high-dose oral or parenteral biotin
[4] = system: rats made diabetic by injection with streptozotocin; details: high-dose oral or parenteral biotin
[5] = system: pre-diabetic Otsuka Long-Evans Tokushima Fatty rats; details: high-dose oral or parenteral biotin

Molecule	change in glycosylated hemoglobin (Type II diabetes)	glycosylated hemoglobin value obtained after chromic tripicolinate treatment (Type II diabetes; still within the diabetic range)	decrease in glycosylated hemoglobin [1]	fasting insulin levels [2]	glucose levels [2]	pancreatic beta cell function [2]	side effects or toxicities [3]	fasting plasma glucose levels (Type I diabetics)	oral glucose tolerance (diabetic KK mice)	oral glucose tolerance [4]	oral glucose tolerance [5]
chromic tripicolinate	small decrease	10.4%	30%	–	–	–	–	–	–	–	–
O=C(O)CCCC[C@@H]1SC[C@@H]2NC(=O)N[C@@H]21 [biotin]	–	–	–	did not decline	sharp decline	improved pancreatic beta cell function	no side effects or toxicities were noted	lowered fasting plasma glucose levels	improve oral glucose tolerance	improve oral glucose tolerance	improve oral glucose tolerance
